Columns and labels:
[1] = tested on: Streptococcus mutans; test: Acid production of Streptococcus mutans under mixed carbon source condition, extracellular glucose and lactic acid by HPLC (Example 8); format: cell-based, Streptococcus mutans ATCC 25175
Procedure: (§1) A strain used in the present experiment was Streptococcus mutans ATCC 25175. Streptococcus mutans ATCC 25175 was pre-cultured in a brain-heart infusion (BHI) medium for 8 hours, and was washed twice with a 2 mM potassium phosphate buffer, and then main-cultured in a minimal medium prepared with reference to a previously reported document (Fujiwara et al (1978) Arch Oral Biol. 23, 601-602) at 37° C. The minimal medium contains, in a 50 mM Tris-HCl buffer (pH 7.4), 2 g/L of L-glutamic acid, 0.2 g/L of cysteine hydrochloride, 0.9 g/L of L-leucine, 1 g/L of ammonium chloride, 3.5 g/L of potassium hydrogen phosphate, 1.5 g/L of potassium dihydrogen phosphate, 4.2 g/L of sodium hydrogen carbonate, 1.2 g/L of magnesium sulfate heptahydrate, 0.02 g/L of manganese chloride tetrahydrate, 0.02 g/L of iron sulfate heptahydrate, 0.6 g/L of sodium pyruvate, 1 mg/L of riboflavin, 0.5 mg/L of thiamine hydrochloride, 0.1 mg/L of biotin, 1 mg/L of nicotinic acid, 0.1 mg/L of p-aminobenzoic acid, 0.5 mg/L of calcium pantothenate, and 1 mg/L of pyridoxine hydrochloride.
To confirm an effect of agarobiose, agarooligosaccharides, xylitol, or neoagarobiose on acid production of Streptococcus mutans, Streptococcus mutans were cultured, using the method of Example 5, in 200 μl of a minimal medium containing 10 g/L of glucose and 0 g/L, 2.5 g/L, 5 g/L, 10 g/L, or 20 g/L of agarobiose, agarooligosaccharides, or neoagarobiose, or 0 g/L, 5 g/L, 10 g/L, or 20 g/L of xylitol in a 96-well plate. After 14 hours, concentrations of extracellular glucose and produced lactic acid were measured by HPLC. A column used for HPLC analysis was Aminex HPX-87H. 0.01 N of sulfuric acid as a mobile phase was flowed at a rate of 0.5 mL/min and 65° C.

[2] = tested on: Streptococcus mutans; test: Growth of Streptococcus mutans under single carbon source condition (Example 6); format: cell-based, Streptococcus mutans ATCC 25175; conditions: 10 g/L as single carbon source in minimal medium, cultured 14 hours
Procedure: as §1, with “hydrochloride. To verify an effect of inhibiting the growth of Streptococcus mutans under a single carbon source condition, Streptococcus mutans were cultured in a minimal medium containing each of 10 g/L of agarobiose, agarooligosaccharides, glucose, xylitol, and neoagarobiose and a carbon source-free minimal medium. They were main-cultured using the method of Example 5 for 14 hours, and a degree of the cell growth was measured by measuring the absorbance of a culture solution at a wavelength of 600 nm every two hours.” for “hydrochloride.”

[3] = tested on: Streptococcus mutans; test: Growth inhibition of Streptococcus mutans under mixed carbon source condition, absorbance at 600 nm (Example 7); format: cell-based, Streptococcus mutans ATCC 25175
Procedure: as §1, with “hydrochloride. Streptococcus mutans was cultured, using the method of Example 5, in 200 μl of a minimal medium containing 10 g/L of glucose and agarobiose, agarooligosaccharides, xylitol, or neoagarobiose at various concentrations in a 96-well plate, and growth inhibitory effects thereof were observed by measuring absorbance at a wavelength of 600 nm over time. The treated concentrations of agarobiose, agarooligosaccharides, xylitol, and neoagarobiose were between 0 g/L and 20 g/L.” for “hydrochloride.”

[4] = tested on: Streptococcus mutans; conditions: literature (Trahan L et al); cited from earlier work
[5] = 2.5 g/L in 10 g/L glucose, 14 hours
[6] = 10 g/L in 10 g/L glucose, 14 hours
[7] = 20 g/L in 10 g/L glucose, 14 hours
[8] = mixed carbon source, 10 g/L glucose

SMILES: OC[C@H]1O[C@@H](O[C@H]2[C@H]3OC[C@@H]2OC(O)[C@H]3O)[C@H](O)[C@@H](O)[C@H]1O (mixture of isomers) [agarobiose]
- concentration of consumed glucose [1, 5]: 6.78 g/L
- concentration of produced lactic acid [1, 5]: 5.65 g/L
- decrease of consumed glucose compared to 0 g/L [1, 5]: 19%
- decrease of produced lactic acid compared to 0 g/L [1, 5]: 32%
- degree of inhibition of acid production compared with 10 g/L of xylitol ([1]; 5 g/L in 10 g/L glucose): greater
- amount of consumed glucose [1, 6]: 4.05 g/L
- amount of produced lactic acid [1, 6]: 3.25 g/L
- decrease of consumed glucose compared to 0 g/L [1, 6]: 51.5%
- decrease of produced lactic acid compared to 0 g/L [1, 6]: 60%
- decrease of consumed glucose compared to 0 g/L [1, 7]: 58.76%
- decrease of produced lactic acid compared to 0 g/L [1, 7]: 68%
- growth of Streptococcus mutans [2]: no growth
- absorbance value after 14 hours of culture ([3]; 2.5 g/L in 10 g/L glucose): 0.55
- degree of inhibition of growth compared with 10 g/L of xylitol ([3]; 5 g/L in 10 g/L glucose): greater
- effect on inhibiting the growth of Streptococcus mutans compared with xylitol ([3]; same concentration, 10 g/L glucose): greater
- final absorbance value compared with xylitol ([3]; same concentration, after 14 hours of culture, 10 g/L glucose): lower

SMILES: OC[C@H]1OC(O)[C@H](O)[C@@H](O[C@@H]2O[C@H]3CO[C@@H]([C@@H]2O)[C@@H]3O)[C@H]1O (stereo partly shown) [neoagarobiose, reference compound]
- inhibition of acid production of Streptococcus mutans [1, 8]: unable to inhibit
- amount of consumed glucose compared to 0 g/L ([1]; up to 20 g/L in 10 g/L glucose): did not exhibit significant differences
- amount of produced lactic acid compared to 0 g/L ([1]; up to 20 g/L in 10 g/L glucose): did not exhibit significant differences
- growth of Streptococcus mutans [2]: no growth
- inhibition of the growth of Streptococcus mutans [3, 8]: unable to inhibit
- final absorbance value compared to 0 g/L ([3]; up to 20 g/L in 10 g/L glucose): did not exhibit significant differences
- change in the growth of Streptococcus mutans ([3]; up to 20 g/L, minimal medium containing 10 g/L glucose): no significant change

SMILES: OC[C@@H](O)[C@H](O)[C@@H](O)CO [xylitol, reference compound]
- concentration needed to inhibit the growth of Streptococcus mutans [4]: ≥ 10 g/L
- decrease of produced lactic acid compared to 0 g/L ([1]; 5 g/L in 10 g/L glucose, 14 hours): 30%
- decrease of consumed glucose compared to 0 g/L [1, 6]: 23.98%
- decrease of produced lactic acid compared to 0 g/L [1, 6]: 35%
- decrease of consumed glucose compared to 0 g/L [1, 7]: 36.41%
- decrease of produced lactic acid compared to 0 g/L [1, 7]: 35%
- growth of Streptococcus mutans [2]: no growth
- absorbance value at 600 nm after culturing for 14 hours ([3]; 20 g/L in 10 g/L glucose): 0.595
